Test results reported in patent publication US20250129103A1, “METHODS FOR TREATMENT OF CANCER” (Frontier Medicines Corporation, priority 2022, published 2025).
In brackets after ≈: the same amount, converted by molar mass.

Experiments:
[1] = target: KRAS G12C (GMPPNP-loaded) and cRAF (Ras-binding domain) interaction (Homo sapiens (Human), UniProt P01116, C118S/C51S/C80L/G12C); assay: Inhibition of KRAS G12C and cRAF binding (AlphaScreen); conditions: KRAS G12C loaded with GMPPNP, cRaf RBD, 2 hours preincubation; read-out: Raf-1 RBD K-Ras IC50
Summary of the method: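 GMPPNP-loaded KRAS G12C in 25 mM Hepes pH 7.4, 150 mM NaCl, 5 mM MgCl2, 0.01% Triton X-100, 10 μM GMPPNP, 2% DMSO, preincubated with compound 2 h at room temperature. cRAF RBD plus AlphaScreen beads then added for 60-90 min; signal read at 570 nm.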

[2] = target: KRAS G12C (GMPPNP-loaded) and PI3Ka (Ras-binding domain) interaction (Homo sapiens (Human), UniProt P01116, C118S/C51S/C80L/G12C); assay: Inhibition of KRAS G12C and PI3Ka binding (AlphaScreen); conditions: KRAS G12C loaded with GMPPNP, PI3Ka RBD, 2 hours preincubation; read-out: PI3K RBD K-Ras IC50
Summary of the method: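 Biotin-AviTag Cys-light KRAS G12C (aa 1-169, C51S/C80L/C118S), GMPPNP-loaded, 1.5 nM, preincubated 2 h with compound, then His-tagged PI3Ka RBD (aa 157-300, 100 nM) plus AlphaScreen beads added for 60-90 min, RT. Buffer Hepes pH 7.4, 10 μM GMPPNP, 2% DMSO; 10-point 1:3 from 50 μM; 4-parameter IC50.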

[3] = Determination of kinetic solubility (pH 7.4); assay type: physicochemical; conditions: for solubility kinetic at 2 h: phosphate buffer, pH 7.4, aqueous buffer, kinetic from dmso stock, 50 mM phosphate buffer pH 7.4, read-out: Ksol, pH 7.4
Summary of the method: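 Sample mixed with 50 mM phosphate buffer, pH 7.4, vortexed, then shaken 2 h at room temperature and centrifuged. Filtrate analysed by HPLC-UV and LC-MS/MS, with solubility read from peak areas against a standard calibration curve.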

[4] = Determination of logD (1-octanol / phosphate buffer pH 7.4); assay type: physicochemical; conditions: 1-octanol/phosphate buffer, pH 7.4, pH 7.4, 1-octanol/phosphate buffer; read-out: Log D, pH 7.4
Summary of the method: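 Shake-flask partition between 1-octanol and 100 mM phosphate buffer pH 7.4, each phase presaturated with the other overnight. Tubes shaken 1 h at 800 rpm, room temperature, then centrifuged. Both phases quantified by LCMS and logD calculated from the ratio.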

KRAS G12C (GMPPNP-loaded) and cRAF (Ras-binding domain) interaction, sequence (P01116 other isoform, or with tags, fused parts or gaps G12C/C51S/C80L/C118S): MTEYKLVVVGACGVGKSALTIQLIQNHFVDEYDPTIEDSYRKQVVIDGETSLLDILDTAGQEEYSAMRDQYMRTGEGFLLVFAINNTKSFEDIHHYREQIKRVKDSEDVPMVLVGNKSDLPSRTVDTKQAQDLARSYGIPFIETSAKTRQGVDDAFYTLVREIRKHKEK
KRAS G12C (GMPPNP-loaded) and PI3Ka (Ras-binding domain) interaction, sequence (P01116 other isoform, or with tags, fused parts or gaps G12C/C51S/C80L/C118S): as above

SMILES | IC50 [1] | IC50 [2] | solubility kinetic at 2 h [3] | logD [4] | Ksol, pH 7.4 (ug/mL) ([3]; 50 mM phosphate buffer pH 7.4)
N#CC[C@H]1CN(c2nc(OC[C@@]34CCCN3C[C@H](F)C4)nc3c(F)c(-c4cccc5ccc(F)c(Cl)c45)ncc23)CCN1C(=O)/C=C/c1ccnc(C2CC2)n1 [Compound 208] | < 10 nM | < 10 nM | 0.01 µg/mL (≈ 0.0128 µM) | 4.2 | 
Cc1nccc(/C=C/C(=O)N2CCN(c3nc(OC[C@@]45CCCN4C[C@H](F)C5)nc4c(F)c(-c5cccc6ccccc56)ncc34)C[C@@H]2CC#N)n1 [Compound 215] | < 10 nM | < 10 nM | 16.5 µg/mL (≈ 23.6 µM) | 2.16 | 
CO[C@H]1CCN(C/C=C/C(=O)N2CCN(c3nc(OC[C@@]45CCCN4C[C@H](F)C5)nc4c(F)c(-c5cccc6ccc(F)c(F)c56)ncc34)C[C@@H]2CC#N)C1 [Compound 217] | < 10 nM | < 10 nM | 99.9 µg/mL (≈ 132 µM) | 2.01 | 
CO[C@H]1CCN(C/C=C/C(=O)N2CCN(c3nc(OC[C@@]45CCCN4C[C@H](F)C5)nc4c(F)c(-c5cccc6cccc(F)c56)ncc34)C[C@@H]2CC#N)C1 [Compound 222] | < 10 nM | < 10 nM | 91.6 µg/mL (≈ 124 µM) | 2.76 | 
N#CC[C@H]1CN(c2nc(OC[C@@]34CCCN3C[C@H](F)C4)nc3c(F)c(-c4cccc5ccc(F)c(F)c45)ncc23)CCN1C(=O)/C=C/CN1C2COCC1C2 [Compound 224] | < 10 nM | < 10 nM | 84.6 µg/mL (≈ 112 µM) | 2.96 | 
CCc1c(F)ccc2cccc(-c3ncc4c(N5CCN(C(=O)/C=C/CN6CCOCC6)[C@@H](CC#N)C5)nc(OC[C@@]56CCCN5C[C@H](F)C6)nc4c3F)c12 [Compound 226] | 10 to 100 nM | < 10 nM | 103 µg/mL (≈ 137 µM) | 2.63 | 
N#CC[C@H]1CN(c2nc(OC[C@@]34CCCN3C[C@H](F)C4)nc3c(F)c(-c4cccc5ccc(F)c(F)c45)ncc23)CCN1C(=O)/C=C/CN1CC2CC(C1)O2 [Compound 229] | < 10 nM | < 10 nM | 69.9 µg/mL (≈ 92.3 µM) | 1.63 | 
N#CC[C@H]1CN(c2nc(OC[C@@]34CCCN3C[C@H](F)C4)nc3c(F)c(-c4cccc(Cl)c4C4CC4)ncc23)CCN1C(=O)/C=C/CN1CC2CC(C1)O2 [Compound 244] | < 10 nM | 10 to 100 nM | 121 µg/mL (≈ 163 µM) | 3.13 | 
C#Cc1c(F)ccc2cccc(-c3ncc4c(N5CCN(C(=O)/C=C/CN6CCOCC6)[C@@H](CC#N)C5)nc(OC[C@@]56CCCN5C[C@H](F)C6)nc4c3F)c12 [Compound 255] | < 10 nM | < 10 nM | 118 µg/mL (≈ 158 µM) | 2.81 | 
COCCN(C)C/C=C/C(=O)N1CCN(c2nc(OC[C@@]34CCCN3C[C@H](F)C4)nc3c(F)c(-c4cccc5cccc(Cl)c45)ncc23)C[C@@H]1CC#N [Compound 320] | < 10 nM | < 10 nM | 104 µg/mL (≈ 139 µM) | 3.05 | 
Cc1cc(N)nc([C@@H]2Cc3nc(OC[C@@]45CCCN4C[C@H](F)C5)nc(N4CCN(C(=O)/C=C/CN(C)C)[C@@H](CC#N)C4)c3C[C@H]2C)c1C(F)(F)F [Compound 322] | < 10 nM | < 10 nM | 133 µg/mL (≈ 186 µM) | 2.79 | 
N#CC[C@H]1CN(c2nc(OC[C@@]34CCCN3C[C@H](F)C4)nc3c2CCN(c2cccc4ccc(F)c(Cl)c24)C3)CCN1C(=O)/C=C/c1nc(C2COC2)no1 [Example 8, 2-((S)-4-(7-(8-chloro-7-fluoronaphthalen-1-yl)-2-(((2R,7aS)-2-fluorohexahydro-1H-pyrrolizin-7a-yl)methoxy)-5,6,7,8-tetrahydropyrido[3,4-d]pyrimidin-4-yl)-1-((E)-3-(3-(oxetan-3-yl)-1,2,4-oxadiazol-5-yl)acryloyl)piperazin-2-yl)acetonitrile] | < 10 nM | < 10 nM | 0.01 µg/mL (≈ 0.0129 µM) | 3.78 | 
Cc1nsc(/C=C/C(=O)N2CCN(c3nc(OCC45CCCN4CCC5)nc4c3CCN(c3cccc5cccc(Cl)c35)C4)C[C@@H]2CC#N)n1 [Example 9, (S,E)-2-(4-(7-(8-chloronaphthalen-1-yl)-2-((hexahydro-1H-pyrrolizin-7a-yl)methoxy)-5,6,7,8-tetrahydropyrido[3,4-d]pyrimidin-4-yl)-1-(3-(3-methyl-1,2,4-thiadiazol-5-yl)acryloyl)piperazin-2-yl)acetonitrile] | < 10 nM | < 10 nM | 67 µg/mL (≈ 94.4 µM) | 3.55 | 

Second part, the molecule after the results:

IC50 [1] | IC50 [2] | solubility kinetic at 2 h [3] | logD [4] | Ksol, pH 7.4 (ug/mL) ([3]; 50 mM phosphate buffer pH 7.4) | SMILES
< 10 nM | < 10 nM | 2.01 µg/mL (≈ 2.66 µM) | 4.69 |  | Cc1nsc(/C=C/C(=O)N2CCN(c3nc(OC[C@@]45CCCN4C[C@H](F)C5)nc4c3C[C@@H](C)[C@H](c3nc(N)cc(C)c3C(F)(F)F)C4)C[C@@H]2CC#N)n1 [Compound 192]
< 10 nM | < 10 nM | 90.2 µg/mL (≈ 128 µM) | 3.38 |  | Cc1nccc(/C=C/C(=O)N2CCN(c3nc(OCC45CCCN4CCC5)nc4c3CCN(c3cccc5cccc(Cl)c35)C4)C[C@@H]2CC#N)n1 [Compound 202]
10 to 100 nM | < 10 nM | 6.14 µg/mL (≈ 8.37 µM) | 4.02 |  | Cc1cc(/C=C/C(=O)N2CCN(c3nc(OC[C@@]45CCCN4C[C@H](F)C5)nc4c(F)c(-c5cccc6cccc(F)c56)ncc34)C[C@@H]2CC#N)nc(C)n1 [Compound 214]
< 10 nM | < 10 nM | 56.4 µg/mL (≈ 74.6 µM) | 2.54 |  | N#CC[C@H]1CN(c2nc(OC[C@@]34CCCN3C[C@H](F)C4)nc3c(F)c(-c4cccc5ccc(F)c(F)c45)ncc23)CCN1C(=O)/C=C/CN1C[C@H]2C[C@@H]1CO2 [Compound 218]
< 10 nM | < 10 nM | 118 µg/mL (≈ 153 µM) | 3 |  | N#CC[C@H]1CN(c2nc(OC[C@@]34CCCN3C[C@H](F)C4)nc3c(F)c(-c4cccc5ccc(F)c(F)c45)ncc23)CCN1C(=O)/C=C/CN1C[C@H]2COC[C@H]2C1 [Compound 223]
< 10 nM | < 10 nM | 94.8 µg/mL (≈ 123 µM) | 3.08 |  | N#CC[C@H]1CN(c2nc(OC[C@@]34CCCN3C[C@H](F)C4)nc3c(F)c(-c4cccc5cccc(Cl)c45)ncc23)CCN1C(=O)/C=C/CN1C[C@H]2COC[C@H]2C1 [Compound 228]
< 10 nM | < 10 nM | 21.3 µg/mL (≈ 28 µM) | 3.48 |  | N#CC[C@H]1CN(c2nc(OC[C@@]34CCCN3C[C@H](F)C4)nc3c(F)c(-c4cccc5ccc(F)c(F)c45)ncc23)CCN1C(=O)/C=C/CN1CCSCC1 [Compound 238]
< 10 nM | < 10 nM | 91 µg/mL (≈ 122 µM) | 2.85 |  | N#CC[C@H]1CN(c2nc(OC[C@@]34CCCN3C[C@H](F)C4)nc3c(F)c(-c4cccc(Cl)c4C4CC4)ncc23)CCN1C(=O)/C=C/CN1C[C@@H]2C[C@H]1CO2 [Compound 277]
10 to 100 nM | 10 to 100 nM | 130 µg/mL (≈ 186 µM) | 2.87 |  | CN1CC[C@@H]1/C=C/C(=O)N1CCN(c2nc(OC[C@@]34CCCN3C[C@H](F)C4)nc3c(F)c(-c4cccc(Cl)c4C4CC4)ncc23)C[C@@H]1CC#N [Compound 305]
< 10 nM | < 10 nM | 139 µg/mL (≈ 195 µM) | 2.47 |  | Cc1cc(N)nc(C2Cc3nc(OC[C@@]45CCCN4C[C@H](F)C5)nc(N4CCN(C(=O)/C=C/CN(C)C)[C@@H](CC#N)C4)c3CC2C)c1C(F)(F)F (stereo partly shown) [Compound 315]
10 to 100 nM | < 10 nM |  | 2.9 | 111.20 ug/mL | Cc1noc(/C=C/C(=O)N2CCN(c3nc(OCC45CCCN4CCC5)nc4c3CCN(c3cccc5cccc(Cl)c35)C4)C[C@@H]2CC#N)n1 [Example 1, (S,E)-2-(4-(7-(8-chloronaphthalen-1-yl)-2-((hexahydro-1H-pyrrolizin-7a-yl)methoxy)-5,6,7,8-tetrahydropyrido[3,4-d]pyrimidin-4-yl)-1-(3-(3-methyl-1,2,4-oxadiazol-5-yl)acryloyl)piperazin-2-yl)acetonitrile]
10 to 100 nM | 10 to 100 nM | 3.98 µg/mL (≈ 5.48 µM) | 3.54 |  | Cc1noc(/C=C/C(=O)N2CCN(c3nc(OC[C@@]45CCCN4C[C@H](F)C5)nc4c(F)c(-c5cccc6cccc(Cl)c56)ncc34)C[C@@H]2CC#N)n1 [Example 4, 2-((S)-4-(7-(8-chloronaphthalen-1-yl)-8-fluoro-2-(((2R,7aS)-2-fluorotetrahydro-1H-pyrrolizin-7a(5H)-yl)methoxy)pyrido[4,3-d]pyrimidin-4-yl)-1-((E)-3-(3-methyl-1,2,4-oxadiazol-5-yl)acryloyl)piperazin-2-yl)acetonitrile]
